Results reported in patent US7323466B2, “Morpholine derivatives as 5HT2C receptor agonists for the treatment of obesity” (Hoffman-La Roche Inc., priority 2005, dated 2008).
Where two headings read alike, the source gives them in different places.

What was measured:
5-HT2C receptor [1] = biological target: T1, 5-HT2C receptor (Homo sapiens, UniProt P28335); assay: Binding to the 5-HT2C receptor, [3H]-5-HT, CHO cell line (Method (a)); parameters: expressed in transfected cells; host or cells: CHO cell line
T1 sequence (P28335 33-458): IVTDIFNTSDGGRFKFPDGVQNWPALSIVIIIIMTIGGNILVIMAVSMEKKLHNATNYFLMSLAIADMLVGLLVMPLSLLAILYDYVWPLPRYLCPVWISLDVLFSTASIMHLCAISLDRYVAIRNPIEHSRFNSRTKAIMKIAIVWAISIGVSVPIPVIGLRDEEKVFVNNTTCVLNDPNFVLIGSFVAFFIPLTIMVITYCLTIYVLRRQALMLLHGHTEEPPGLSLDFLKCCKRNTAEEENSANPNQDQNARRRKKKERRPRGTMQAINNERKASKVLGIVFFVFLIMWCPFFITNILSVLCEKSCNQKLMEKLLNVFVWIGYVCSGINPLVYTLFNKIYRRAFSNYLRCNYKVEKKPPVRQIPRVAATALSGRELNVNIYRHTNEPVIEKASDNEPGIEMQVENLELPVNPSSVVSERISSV
Description: (§1) The binding of compounds of formula (I) to serotonin receptors was determined in vitro by standard methods. The preparations were investigated in accordance with the assays given hereinafter.
Method (a): For the binding to the 5-HT2C receptor the 5-HT2C receptors were radiolabeled with [^3H]-5-HT. The affinity of the compounds for 5-HT2C receptors in a CHO cell line was determined according to the procedure of D. Hoyer, G. Engel and H. O. Kalkman, European J. Pharmacol., 1985, 118, 13-23.

5-HT2A receptor [2] = biological target: T2, 5-HT2A receptor (Homo sapiens, UniProt P28223); assay: Functional activity, FLIPR calcium assay, CHO cells expressing human 5-HT2A; format: cell-based; parameters: expressed in transfected cells; host or cells: CHO cells; details: for EC50: FLIPR, CHO cells, Fluo-3-AM, read-out: h5-HT2A EC50; for h5-HT2A Rel. Eff.: maximum fluorescent signal relative to 10 μM 5-HT (defined as 100%)
T2 sequence (P28223 whole entry): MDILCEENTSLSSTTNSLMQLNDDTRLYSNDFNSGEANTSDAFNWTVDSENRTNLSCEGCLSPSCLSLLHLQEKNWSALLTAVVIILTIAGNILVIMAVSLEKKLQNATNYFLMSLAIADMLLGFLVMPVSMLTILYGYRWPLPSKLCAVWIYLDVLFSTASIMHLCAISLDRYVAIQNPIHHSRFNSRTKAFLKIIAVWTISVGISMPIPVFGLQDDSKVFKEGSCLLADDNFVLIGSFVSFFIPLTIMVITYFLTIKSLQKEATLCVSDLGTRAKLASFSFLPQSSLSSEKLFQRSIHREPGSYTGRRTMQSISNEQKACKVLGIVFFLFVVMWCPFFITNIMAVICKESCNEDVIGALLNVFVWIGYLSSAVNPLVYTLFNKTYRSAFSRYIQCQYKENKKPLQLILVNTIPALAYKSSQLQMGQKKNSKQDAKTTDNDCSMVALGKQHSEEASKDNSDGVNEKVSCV
Description: (§2) The functional activity of compounds of formula (I) was assayed using a Fluorimetric Imaging Plate Reader (FLIPR). CHO cells expressing the human 5-HT2C or human 5-HT2A receptors were counted and plated into standard 96 well microtitre plates on the day before testing to give a confluent monolayer. The cells were then loaded with the calcium sensitive dye, Fluo-3-AM. Unincorporated dye was removed using an automated cell washer to leave a total volume of 100 μL/well of assay buffer (Hanks balanced salt solution containing 20 mM Hepes and 2.5 mM probenecid). The drug (dissolved in 50 μL of the assay buffer) was added at a rate of 70 μL/sec to each well of the FLIPR 96 well plate during fluorescence measurements. The measurements were taken at 1 sec intervals and the maximum fluorescent signal was measured (approx 10-15 secs after drug addition) and compared with the response produced by 10 μM 5-HT (defined as 100%) to which it was expressed as a percentage response (relative efficacy). Dose response curves were constructed using Graphpad Prism (Graph Software Inc.).

5-HT2A receptor [3] = biological target: T2, 5-HT2A receptor; assay: Binding to the 5-HT2A receptor, [125I]-DOI, CHO cell line (Method (c)); parameters: expressed in transfected cells; host or cells: CHO cell line
Description: as §1
Method (c): For the binding to the 5-HT2A receptor the 5-HT2A receptors were radiolabeled with [^125I]-DOI. The affinity of the compounds for 5-HT2A receptors in a CHO cell line was determined according to the procedure of D. J. McKenna and S. J. Peroutka, J. Neurosci., 1989, 9, 3482-90.

human 5-HT2B receptors = biological target: T3, human 5-HT2B receptors (Homo sapiens, UniProt P41595); assay: Binding to the 5-HT2B receptor, [3H]-5-HT, CHO cell line (Method (b))
T3 construct: expressed in transfected cells; host or cells: CHO cell line
T3 sequence (P41595 whole entry): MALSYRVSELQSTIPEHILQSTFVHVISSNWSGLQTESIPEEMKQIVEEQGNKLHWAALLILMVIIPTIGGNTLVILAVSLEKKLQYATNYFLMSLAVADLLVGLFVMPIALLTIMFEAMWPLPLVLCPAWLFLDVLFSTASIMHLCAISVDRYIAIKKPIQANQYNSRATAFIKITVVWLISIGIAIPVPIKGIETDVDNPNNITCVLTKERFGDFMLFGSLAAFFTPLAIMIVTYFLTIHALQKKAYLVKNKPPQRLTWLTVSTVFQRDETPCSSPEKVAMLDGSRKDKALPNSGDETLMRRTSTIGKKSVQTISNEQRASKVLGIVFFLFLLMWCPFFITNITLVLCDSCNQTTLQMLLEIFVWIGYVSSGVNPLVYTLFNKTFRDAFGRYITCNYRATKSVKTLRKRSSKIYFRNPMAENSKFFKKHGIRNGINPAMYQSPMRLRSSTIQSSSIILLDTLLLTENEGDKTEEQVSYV
Description: as §1
Method (b): For the binding to the 5-HT2B receptor the 5-HT2B receptors were radiolabeled with [^3H]-5-HT. The affinity of the compounds for human 5-HT2B receptors in a CHO cell line was determined according to the procedure of K. Schmuck, C. Ullmer, P. Engels and H. Lubbert, FEBS Lett., 1994, 342, 85-90.

5-HT2C receptor [4] = biological target: T1, 5-HT2C receptor; assay: Functional activity, FLIPR calcium assay, CHO cells expressing human 5-HT2C; format: cell-based; parameters: expressed in transfected cells; host or cells: CHO cells; details: for h5-HT2C Rel. Eff.: maximum fluorescent signal relative to 10 μM 5-HT (defined as 100%)
Description: as §2

[5] = Method (a), [3H]-5-HT, CHO cell line, read-out: Ki (2C)
[6] = Method (c), [125I]-DOI, CHO cell line, read-out: Ki (2A)
[7] = Method (b), [3H]-5-HT, human 5-HT2B, CHO cell line, read-out: Ki (2B)
[8] = FLIPR, CHO cells, Fluo-3-AM, read-out: h5-HT2C EC50

SMILES | Ki (5-HT2C receptor [1]; [5]) [nM] | EC50 (5-HT2A receptor [2]) [nM] | h5-HT2A Rel. Eff. (5-HT2A receptor [2]) [%] | Ki (5-HT2A receptor [3]; [6]) [nM] | Ki (human 5-HT2B receptors; [7]) [nM] | EC50 (5-HT2C receptor [4]; [8]) [nM] | h5-HT2C Rel. Eff. (5-HT2C receptor [4]) [%] | Ki (5-HT2C receptor [1]) [nM] | Ki (5-HT2A receptor [3]) [nM] | Ki (human 5-HT2B receptors) [nM] | EC50 (5-HT2C receptor [4]) [nM]
FC(F)(F)c1cccc(C[C@@H]2CNCCO2)c1 [Example 14, (R)-2-(3-trifluoromethyl)benzylmorpholine] | 10 | 511 | 47 | 89 | 55 | 7 | 97 | – | – | – | –
COc1c(C)cc(C[C@@H]2CNCCO2)cc1Br [Example 46, (R)-2-(3-bromo-4-methoxy-5-methyl-benzyl)morpholine] | 82 | > 3000 | 21 | 641 | > 10000 | 53 | 94 | – | – | – | –
c1ccc(C[C@@H]2CNCCO2)cc1 [reference compound] | – | > 3000 | 2 | – | – | – | 41 | 169 | > 10000 | > 10000 | > 3000
